Experimental data from the supplement of paper PMC10307832.

Key:
Assay in all cases: relative viability (nuclei count vs DMSO), 5 days (fraction); higher = more cells survive
NCI-H1944 = test system: NCI-H1944
Summary of the method: (§1)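 Relative viability is defined as nuclei in treated wells over nuclei in vehicle wells. Duplicate plates were run and medians reported. Lung cancer cell lines in 1536-well plates were dosed by pin tool one day after seeding, with one drug or with a fixed anchor-drug dose plus five library-drug doses (not always all listed) in √10 steps, and nuclei were counted after 5 days.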

HCC-44 = test system: HCC-44
Summary of the method: as §1

NCI-H322M = test system: NCI-H322M
Summary of the method: as §1

NCI-H358 = test system: NCI-H358
Summary of the method: as §1

ABC-1 = test system: ABC-1
Summary of the method: as §1

HCC-827 = test system: HCC-827
Summary of the method: as §1

NCI-H1793 = test system: NCI-H1793
Summary of the method: as §1

LU99A = test system: LU99A
Summary of the method: as §1

NCI-H1792 = test system: NCI-H1792
Summary of the method: as §1

ChaGo-K-1 = test system: ChaGo-K-1
Summary of the method: as §1

NCI-H2126 = test system: NCI-H2126
Summary of the method: as §1

NCI-H1395 = test system: NCI-H1395
Summary of the method: as §1

NCI-H1666 = test system: NCI-H1666
Summary of the method: as §1

NCI-H3122 = test system: NCI-H3122
Summary of the method: as §1

CAL-12T = test system: CAL-12T
Summary of the method: as §1

NCI-H2347 = test system: NCI-H2347
Summary of the method: as §1

LXF-289 = test system: LXF-289
Summary of the method: as §1

RERF-LC-KJ = test system: RERF-LC-KJ
Summary of the method: as §1

SK-LU-1 = test system: SK-LU-1
Summary of the method: as §1

NCI-H520 = test system: NCI-H520
Summary of the method: as §1

NCI-H1755 = test system: NCI-H1755
Summary of the method: as §1

LCLC-103H = test system: LCLC-103H
Summary of the method: as §1

CN1CCN(CCOc2cc(OC3CCOCC3)c3c(Nc4c(Cl)ccc5c4OCO5)ncnc3c2)CC1 [Saracatinib] + CS(=O)(=O)N1CCN(Cc2cc3nc(-c4cccc5[nH]ncc45)nc(N4CCOCC4)c3s2)CC1 [Pictilisib] (partner 1 µM)
relative viability (NCI-H1944; first compound 0.02 µM): 0.335
relative viability (NCI-H1944; first compound 0.6325 µM): 0.288
relative viability (NCI-H1944; first compound 2 µM): 0.278
relative viability (HCC-44; first compound 0.02 µM): 0.527
relative viability (HCC-44; first compound 0.2 µM): 0.598
relative viability (HCC-44; first compound 0.6325 µM): 0.854
relative viability (HCC-44; first compound 2 µM): 0.442
relative viability (NCI-H322M; first compound 0.02 µM): 0.549
relative viability (NCI-H322M; first compound 0.2 µM): 0.474
relative viability (NCI-H322M; first compound 0.6325 µM): 0.496
relative viability (NCI-H322M; first compound 2 µM): 0.296
relative viability (NCI-H358; first compound 0.02 µM): 0.348
relative viability (NCI-H358; first compound 0.2 µM): 0.226
relative viability (NCI-H358; first compound 0.6325 µM): 0.284
relative viability (NCI-H358; first compound 2 µM): 0.257
relative viability (ABC-1; first compound 0.02 µM): 0.695
relative viability (ABC-1; first compound 0.2 µM): 0.938
relative viability (ABC-1; first compound 0.6325 µM): 0.85
relative viability (ABC-1; first compound 2 µM): 0.822
relative viability (HCC-827; first compound 0.02 µM): 1.1
relative viability (HCC-827; first compound 0.2 µM): 0.499
relative viability (HCC-827; first compound 0.6325 µM): 0.501
relative viability (HCC-827; first compound 2 µM): 0.323
relative viability (NCI-H1793; first compound 0.02 µM): 0.345
relative viability (NCI-H1793; first compound 0.2 µM): 0.213
relative viability (NCI-H1793; first compound 0.6325 µM): 0.41
relative viability (NCI-H1793; first compound 2 µM): 0.408
relative viability (LU99A; first compound 0.02 µM): 0.334
relative viability (LU99A; first compound 0.2 µM): 0.259
relative viability (LU99A; first compound 0.6325 µM): 0.309
relative viability (LU99A; first compound 2 µM): 0.299
relative viability (NCI-H1792; first compound 0.02 µM): 0.293
relative viability (NCI-H1792; first compound 0.2 µM): 0.239
relative viability (NCI-H1792; first compound 0.6325 µM): 0.302
relative viability (NCI-H1792; first compound 2 µM): 0.263
relative viability (ChaGo-K-1; first compound 0.02 µM): 0.784
relative viability (ChaGo-K-1; first compound 0.2 µM): 0.521
relative viability (ChaGo-K-1; first compound 0.6325 µM): 0.903
relative viability (ChaGo-K-1; first compound 2 µM): 0.379
relative viability (NCI-H2126; first compound 0.02 µM): 0.475
relative viability (NCI-H2126; first compound 0.2 µM): 0.498
relative viability (NCI-H2126; first compound 0.6325 µM): 0.529
relative viability (NCI-H2126; first compound 2 µM): 0.429
relative viability (NCI-H1395; first compound 0.02 µM): 0.603
relative viability (NCI-H1395; first compound 0.2 µM): 0.497
relative viability (NCI-H1395; first compound 0.6325 µM): 0.672
relative viability (NCI-H1395; first compound 2 µM): 0.528
relative viability (NCI-H1666; first compound 0.02 µM): 0.493
relative viability (NCI-H1666; first compound 0.2 µM): 0.413
relative viability (NCI-H1666; first compound 0.6325 µM): 0.563
relative viability (NCI-H1666; first compound 2 µM): 0.469
relative viability (NCI-H3122; first compound 0.02 µM): 0.573
relative viability (NCI-H3122; first compound 0.6325 µM): 0.586
relative viability (NCI-H3122; first compound 2 µM): 0.454
relative viability (CAL-12T; first compound 0.02 µM): 0.428
relative viability (CAL-12T; first compound 0.2 µM): 0.399
relative viability (CAL-12T; first compound 0.6325 µM): 0.491
relative viability (CAL-12T; first compound 2 µM): 0.255
relative viability (NCI-H2347; first compound 0.02 µM): 0.654
relative viability (NCI-H2347; first compound 0.2 µM): 0.6
relative viability (NCI-H2347; first compound 0.6325 µM): 0.772
relative viability (NCI-H2347; first compound 2 µM): 0.527
relative viability (LXF-289; first compound 0.02 µM): 0.715
relative viability (LXF-289; first compound 0.2 µM): 0.731
relative viability (LXF-289; first compound 0.6325 µM): 0.8
relative viability (LXF-289; first compound 2 µM): 0.472
relative viability (RERF-LC-KJ; first compound 0.02 µM): 0.503
relative viability (RERF-LC-KJ; first compound 0.2 µM): 0.521
relative viability (RERF-LC-KJ; first compound 0.6325 µM): 0.604
relative viability (RERF-LC-KJ; first compound 2 µM): 0.362
relative viability (SK-LU-1; first compound 0.02 µM): 0.443
relative viability (SK-LU-1; first compound 0.2 µM): 0.419
relative viability (SK-LU-1; first compound 0.6325 µM): 0.388
relative viability (SK-LU-1; first compound 2 µM): 0.226
relative viability (NCI-H520; first compound 0.02 µM): 0.321
relative viability (NCI-H520; first compound 0.2 µM): 0.263
relative viability (NCI-H520; first compound 0.6325 µM): 0.273
relative viability (NCI-H520; first compound 2 µM): 0.228
relative viability (NCI-H1755; first compound 0.02 µM): 0.424
relative viability (NCI-H1755; first compound 0.2 µM): 0.408
relative viability (NCI-H1755; first compound 0.6325 µM): 0.431
relative viability (NCI-H1755; first compound 2 µM): 0.26
relative viability (LCLC-103H; first compound 0.02 µM): 0.547
relative viability (LCLC-103H; first compound 0.2 µM): 0.671
relative viability (LCLC-103H; first compound 0.6325 µM): 0.649
relative viability (LCLC-103H; first compound 2 µM): 0.455
